Measured values: publication PMC9043997, “LEAP2 reduces postprandial glucose excursions and ad libitum food intake in healthy men” (Cell Reports Medicine, 2022)
Where a SMILES comes first, the peptide text is derived from it. Bridges are numbered along the chain shown (N, C = ends).

What was measured:
[1] = tested on: healthy men; experiment: Brown adipose tissue thermogenesis by thermal imaging; assay type: in vivo, human; conditions: iv LEAP2 ~25 pmol/kg/min, thermal imaging camera
Procedure: To assess BAT thermogenesis, temperature of the upper chest was measured from −10 to 0 min, 0 to 15 min, 90 to 105 min and 180 to 195 min using a thermal imaging camera (FLIR A655sc; FLIR Systems, Wilsonville, Oregon, USA). Participants were positioned approximately one meter from the camera in a hospital bed with slight elevation of the head and wearing long-sleeved shirts that exposed the upper chest. The emissivity for measurement of human skin temperatures was set to 0.98 as detailed by the manufacturer. Thermal images were collected at 30-s intervals and analyzed using the FLIR tools program (FLIR Systems, Wilsonville, Oregon, USA). Post hoc, the two supraclavicular regions and a region corresponding to the manubrium of the sternum were marked as regions of interest and the maximum temperature per image was recorded. An average of records from the two supraclavicular regions was used. The manubrium region was used as a negative control reflecting the overall cutaneous heat production.[37], [38], [39] For analysis of BAT thermogenesis, manubrium-corrected temperature was calculated as the average of the supraclavicular skin temperatures minus the manubrium skin temperature. […] Average room temperature was 22.5 ± 0.06 °C adjusted by two air conditioners (Electrolux EXP35U538CW; AB Electrolux, Stockholm, Sweden) and recorded four times during each experimental day. […]

[2] = tested on: healthy men; experiment: Plasma free fatty acids, glycerol and triglycerides during LEAP2 infusion, crossover study; assay type: in vivo, human; conditions: mean ± SEM
Description: (§1) The infusion was terminated when participants had finished eating.
(§2) For analysis of plasma glucose, blood was distributed in fluoride heparin-coated tubes, centrifuged immediately for 30 s (12,100 g, room temperature) and measured bedside by the glucose oxidase method (YSI 2900 Biochemistry Analyzer; YSI Incorporated, Yellow Springs, Ohio, USA). For analysis of LEAP2, blood was collected in chilled K3EDTA tubes each containing 250 KIU of aprotinin. For analysis of acyl ghrelin, blood was collected in chilled K2EDTA tubes added 20 μL pefabloc (100 mg/mL; Merck Millipore, Burlington, Massachusetts, USA). Subsequently, pefabloc-treated plasma was acidified with HCl (12.5 μL 2M HCl per 500 μL plasma; Merck Millipore, Burlington, Massachusetts, USA). For analysis of glucagon, blood was collected in K2EDTA tubes. For analysis of GH, insulin, C-peptide, free fatty acids, glycerol, triglycerides and acetaminophen (paracetamol), blood was collected in tubes with lithium and heparin. All tubes were immediately cooled on ice, centrifuged for 15 min (2,000 g, 4°C) and stored at −80°C until analysis. LEAP2 concentrations were determined by an in-house radioimmunoassay directed against the N-terminal part of LEAP2. LEAP-2 was used for standards, and the tracer was a peptide composed of the 12 N-terminal amino acids of LEAP2, with a ^125I-labelled tyrosine added to the C-terminal end. The precision and accuracy of the assay were evaluated based on European Medicines Agency's guidelines for bioanalytical assay validation. […] Due to supply chain disruptions from the COVID-19 pandemic, acyl ghrelin was only measured in plasma samples at timepoints 0, 60, 105, 165 and 255 min. […] Plasma GH was measured by Immunodiagnostic system-iSYS assay (IS-3700; IDS Limited, Boldon, UK). The assay is based on chemiluminesence technology and was performed according to the manufacturer’|'s instructions. […] For analysis of glucagon, plasma was extracted in a final concentration of 70% ethanol. Glucagon was measured using a C-terminal directed antiserum (code number 4305) measuring glucagon of pancreatic origin as previously described.[40] […] Plasma insulin and C-peptide were measured using a two-sided electrochemiluminescence immunoassay (Atellica IM Analyzer; Siemens Healthcare, Ballerup, Denmark). Plasma triglycerides and acetaminophen were analyzed by spectrophotometric methods following enzymatic hydrolysis and oxidation (Siemens Atellica CH 930; Siemens Healthcare, Ballerup, Denmark). Plasma concentrations of free fatty acids and glycerol were determined by enzymatic methods modified to run on a COBAS 6000 automatic analyzer (Roche, Rødovre, Denmark) using a NEFA-HR assay (Wako Chemicals, Neuss, Germany) and glycerol assay (Randox Laboratories, Crumlin, UK), respectively.
(§3) Unless otherwise stated, results are presented as mean ± SEM. Baseline values were calculated as a mean of timepoints −35, −10 and 0 min or, when only available −10 and 0 min. Baseline values for the postprandial period were calculated as a mean of timepoint 60 min. Calculations of AUC were based on the trapezoidal rule. AUC values are reported for the period 0 to 255 min. To assess the fasting and postprandial periods separately, AUC values are reported for the periods 0 to 60 min and 60 to 255 min, respectively. Student’s paired t test was used to test for differences in baseline, peak, time to peak, AUC and mean values and ad libitum food intake in men.

[3] = tested on: healthy men; experiment: Plasma glucose during LEAP2 infusion with liquid mixed meal test, crossover study; assay type: in vivo, human; conditions: mean ± SEM
Description: as §1, §2, §3

[4] = tested on: wild-type mice; experiment: Plasma glucose and food intake after subcutaneous LEAP2 in wild-type mice; assay type: in vivo, mouse
Procedure: Food intake and blood glucose measurements were measured in female GHSR-null mice (n = 8) and wild-type littermates (n = 10) (14–24 weeks of age). Mice were double-housed with matching genotype and age. All mice were fasted for four hours and randomized by mean body weight per cage and allocated into either vehicle (saline) or LEAP2 administration on the first day of the study. LEAP2 or vehicle was administered subcutaneously just before start of dark phase (6 PM). By start of dark phase, mice had ad libitum access to water and a normal chow diet. Cumulative food intake was measured one, two and four hours after administration and calculated as the average food intake per cage per g body weight of each mouse, respectively. Blood glucose was measured in blood from a tail puncture at baseline and one, two and four hours after administration by use of a glucometer (Contour ™xt meter; Ascensia Diabetes Care, Basel, Switzerland). One week later, mice underwent the same procedure, but with the opposite treatment. The concentration of the LEAP2 dose was 3 μmol/kg.

[5] = healthy men n = 20, LEAP2 day, before infusion
[6] = healthy men n = 20, iv LEAP2 ~25 pmol/kg/min, 0 to 255 min
[7] = healthy men n = 20, iv LEAP2 ~25 pmol/kg/min, fasting period
[8] = healthy men n = 20, iv LEAP2 ~25 pmol/kg/min, liquid mixed meal at 65 min
[9] = healthy men n = 20, iv LEAP2 ~25 pmol/kg/min, postprandial period
[10] = healthy men n = 20, iv LEAP2 ~25 pmol/kg/min, time = 60 min

`CC[C@H](C)[C@@H]1NC(=O)[C@@H]2CSSC[C@@H](C(=O)N[C@@H](CO)C(=O)N[C@@H](CC(C)C)C(=O)N[C@@H](CO)C(=O)N[C@H](C(=O)N[C@@H](C)C(=O)N[C@@H](CCC(N)=O)C(=O)N[C@@H](CCC(=O)O)C(=O)O)C(C)C)NC(=O)[C@H](CCCNC(=N)N)NC(=O)[C@H](CCCNC(=N)N)NC(=O)[C@H](CCCCN)NC(=O)[C@H](CCCNC(=N)N)NC(=O)[C@H](CSSC[C@H](NC(=O)[C@H](CO)NC(=O)[C@H](C)NC(=O)CNC(=O)[C@@H](NC(=O)[C@@H]3CCCN3C(=O)[C@H](CCCNC(=N)N)NC(=O)[C@H](CC(C)C)NC(=O)[C@H](CO)NC(=O)[C@@H](NC(=O)CNC(=O)[C@H](CCCNC(=N)N)NC(=O)[C@H](Cc3c[nH]c4ccccc34)NC(=O)[C@H](Cc3ccccc3)NC(=O)[C@@H]3CCCN3C(=O)[C@@H](NC(=O)[C@@H](N)CCSC)[C@@H](C)O)C(C)C)[C@@H](C)CC)C(=O)N[C@@H](CCCNC(=N)N)C(=O)N[C@@H](CC(=O)O)C(=O)N[C@@H](CC(=O)O)C(=O)N[C@@H](CO)C(=O)N[C@@H](CCC(=O)O)C(=O)N2)NC(=O)[C@H](CC(C)C)NC(=O)[C@H](CCCNC(=N)N)NC(=O)[C@H]([C@@H](C)O)NC1=O` [LEAP2, liver-expressed antimicrobial peptide 2] (H-MTPFWRGVSLRPIGASCRDDSECITRLCRKRRCSLSVAQE-OH; disulfide 17-28, 23-33 (inferred); N-terminus and C-terminus assumed) was tested. Which “BAT thermogenesis (manubrium-corrected supraclavicular skin temperature), LEAP2 vs placebo” value [1] did it give?
The value was “no differences”.

What about the “Free fatty acids Baseline” value [2, 5] of the same molecule?
Its value is 339 ± 18.4 µmol/L.

What about the “Glycerol Baseline” value [2, 5] of the same molecule?
The value was 26.6 ± 2.45 µmol/L.

What about the “Triglycerides Baseline” value [2, 5] of the same molecule?
Its value is 920 ± 62.2 µmol/L.

What about the “Free fatty acids AUC” value [2, 6] of the same molecule?
Its value is 43.2 ± 2.49 mmol·min/L.

And the “Glycerol AUC” value [2, 6]?
The value was 4.87 ± 0.57 mmol·min/L.

What about the “Triglycerides AUC” value [2, 6] of the same molecule?
The value was 263 ± 16.7 mmol·min/L.

What about the “Free fatty acids AUC0–60 min” value [2, 7] of the same molecule?
The value was 18.9 ± 1.18 mmol·min/L.

And the “Glycerol AUC0–60 min” value [2, 7]?
The value was 1.65 ± 0.15 mmol·min/L.

What about the “Triglycerides AUC0–60 min” value [2, 7] of the same molecule?
Its value is 53.5 ± 3.14 mmol·min/L.

What about the “Free fatty acids Nadir” value [2, 8] of the same molecule?
Its value is 58.4 ± 3.94 µmol/L.

And the “Free fatty acids Time to nadir” value [2, 8]?
The value was 155 ± 7.63 min.

And the “Glycerol Nadir” value [2, 8]?
Its value is 11.7 ± 2.12 µmol/L.

And the “Glycerol Time to nadir” value [2, 8]?
Its value is 144 ± 10.2 min.

And the “Triglycerides Peak” value [2, 8]?
The value was 1,275 ± 84.8 μmol/L.

What about the “Triglycerides Time to peak” value [2, 8] of the same molecule?
The value was 195 ± 5.33 min.

And the “Free fatty acids AUC60–255 min” value [2, 9]?
Its value is 24.4 ± 1.51 mmol·min/L.

What about the “Glycerol AUC60–255 min” value [2, 9] of the same molecule?
Its value is 3.22 ± 0.44 mmol·min/L.

And the “Triglycerides AUC60–255 min” value [2, 9]?
Its value is 210 ± 13.8 mmol·min/L.

What about the “Free fatty acids Postprandial baseline” value [2, 10] of the same molecule?
Its value is 272 ± 16.4 µmol/L.

And the “Glycerol Postprandial baseline” value [2, 10]?
Its value is 22.9 ± 2.12 µmol/L.

And the “Triglycerides Postprandial baseline” value [2, 10]?
Its value is 847 ± 48.3 µmol/L.

And the “Glucose Baseline” value ([3]; healthy men n = 20, LEAP2 day, before infusion (mean of -35, -10, 0 min))?
The value was 5.02 ± 0.06 mmol/L.

What about the “Glucose AUC” value ([3]; healthy men n = 20, iv LEAP2 ~25 pmol/kg/min, 0 to 255 min, trapezoidal) of the same molecule?
The value was 1,288 ± 13.4 mmol/L × min.

And the “Glucose Postprandial end” value ([3]; healthy men n = 20, iv LEAP2 ~25 pmol/kg/min, after liquid mixed meal)?
Its value is 4.48 ± 0.11 mmol/L.

What about the plasma glucose AUC 0–60 min [3, 7] of the same molecule?
Its plasma glucose AUC 0–60 min is 295 ± 3.02 mmol/L/min.

And the “Glucose Peak” value [3, 8]?
The value was 6.21 ± 0.12 mmol/L.

And the “Glucose Time to peak” value [3, 8]?
The value was 140 ± 12.7 min.

And the “Glucose AUC60–255 min” value ([3]; healthy men n = 20, iv LEAP2 ~25 pmol/kg/min, postprandial period after liquid mixed meal)?
Its value is 992 ± 12.4 mmol·min/L.

What about the “Glucose Postprandial baseline” value [3, 10] of the same molecule?
The value was 4.96 ± 0.05 mmol/L.

And the “plasma glucose during ad libitum food intake 1 h after dosing vs vehicle” value ([4]; female wild-type mice n = 10, LEAP2 3 μmol/kg single subcutaneous dose, after 4 h fast)?
The value was “significantly diminished increases in plasma glucose”.

What about the “glucose-lowering effect at later time points (2 and 4 h)” value ([4]; female wild-type mice n = 10, LEAP2 3 μmol/kg subcutaneous) of the same molecule?
Its value is “not at the later time points”.

And the “cumulative food intake 2 and 4 h after dosing vs vehicle” value ([4]; female wild-type mice n = 10, LEAP2 3 μmol/kg subcutaneous, chow ad libitum from start of dark phase)?
The value was “lowered the cumulative food intake”.
